Assay results reported in patent US20240246979A1, “cGAS INHIBITORS” (Eli Lilly and Company, priority 2022, published 2024).

Assays:
[1] = biological target: T1, cGAS (Homo sapiens, UniProt Q8N884); test: Cellular assay to measure cGAS activity (IFNb AlphaLISA in THP1 cells stimulated by RDG-Adenovirus-GFP); type: cell-based; set-up: host or cells: THP1 cells differentiated with PMA and stimulated with RDG-Adenovirus-GFP; settings: PMA-differentiated THP1 cells, RDG-Adenovirus-GFP at 1000 MOI; inhibition of IFNb production as marker for cGAS activity
How it was run: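 The readout is secreted IFNb measured by AlphaLISA after overnight compound exposure. THP1 cells, differentiated with PMA for 24 h and rested overnight, were infected with RDG-Adenovirus-GFP (1000 MOI, 4 h) before compounds were added; IC50 came from a 4-parameter logistic fit of inhibition against log concentration.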

[2] = biological target: T1, cGAS; test: In vitro inhibition assay of cGAS activity (cGAMP production, RapidFire mass spectrometry); type: biochemical; set-up: Insert cDNA encoding full-length of human cGAS; His6; made in house; host or cells: E. coli BL21(DE3); settings: 10 nM recombinant human cGAS, 60 nM 75-bp dsDNA, 50 μM ATP, 50 μM GTP, 3 hrs
How it was run: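 Reactions in 10 mM Tris-Cl pH 7.5, 5 mM MgCl2, 0.01% Triton X-100 contained serially diluted compound, 10 nM recombinant cGAS, dsDNA activator and 50 μM each of ATP and GTP, run 3 hrs at ambient temperature. After formic acid quench, cGAMP output was measured by mass spectrometry and percent inhibition versus log concentration was fitted for IC50.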

T1 sequence (Q8N884 whole entry): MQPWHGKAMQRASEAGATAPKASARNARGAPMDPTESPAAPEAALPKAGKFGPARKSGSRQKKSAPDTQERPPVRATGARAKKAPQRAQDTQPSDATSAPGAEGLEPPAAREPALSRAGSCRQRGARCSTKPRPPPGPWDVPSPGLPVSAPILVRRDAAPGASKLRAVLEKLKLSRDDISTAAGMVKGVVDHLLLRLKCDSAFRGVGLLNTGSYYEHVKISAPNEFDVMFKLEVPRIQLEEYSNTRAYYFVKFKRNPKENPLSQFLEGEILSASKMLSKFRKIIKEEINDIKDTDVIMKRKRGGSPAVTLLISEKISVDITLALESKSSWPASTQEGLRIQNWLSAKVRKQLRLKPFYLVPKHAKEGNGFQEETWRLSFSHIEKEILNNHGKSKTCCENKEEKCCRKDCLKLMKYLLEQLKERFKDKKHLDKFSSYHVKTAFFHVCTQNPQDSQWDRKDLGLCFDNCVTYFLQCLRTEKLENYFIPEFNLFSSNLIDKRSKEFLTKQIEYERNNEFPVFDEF

SMILES | IC50 [1] [µM] | IC50 [2] [µM]
C[C@@H]1C(=O)NCCc2[nH]c3c(Cl)c(Cl)cc(OCc4cocn4)c3c21 (single isomer, unassigned) [Example 178, (S)-7,8-Dichloro-1-methyl-10-(oxazol-4-ylmethoxy)-3,4,5,6-tetrahydroazepino[4,5-b]indol-2(1H)-one or (R)-7,8-dichloro-1-methyl-10-(oxazol-4-ylmethoxy)-3,4,5,6-tetrahydroazepino[4,5-b]indol-2(1H)-one] | 0.311 | 0.0108
C[C@@H]1C(=O)NCCc2[nH]c3c(Cl)c(Cl)cc(OCc4cocn4)c3c21 (single isomer, unassigned) [Example 179, (S)-7,8-Dichloro-1-methyl-10-(oxazol-4-ylmethoxy)-3,4,5,6-tetrahydroazepino[4,5-b]indol-2(1H)-one or (R)-7,8-dichloro-1-methyl-10-(oxazol-4-ylmethoxy)-3,4,5,6-tetrahydroazepino[4,5-b]indol-2(1H)-one] | > 10 | 2.12
C[C@H](O)C(=O)Nc1cc(Cl)c(Cl)c2[nH]c3c(c12)[C@@H](C)C(=O)NCC3(C)C (single isomer, unassigned) [Example 181, (S)—N—((R)-7,8-Dichloro-1,5,5-trimethyl-2-oxo-1,2,3,4,5,6-hexahydroazepino[4,5-b]indol-10-yl)-2-hydroxypropanamide or (S)—N—((S)-7,8-dichloro-1,5,5-trimethyl-2-oxo-1,2,3,4,5,6-hexahydroazepino[4,5-b]indol-10-yl)-2-hydroxypropanamide] | > 10 | > 39.8
C[C@H](O)C(=O)Nc1cc(Cl)c(Cl)c2[nH]c3c(c12)[C@@H](C)C(=O)NCC3(C)C (single isomer, unassigned) [Example 182, (S)—N—((R)-7,8-Dichloro-1,5,5-trimethyl-2-oxo-1,2,3,4,5,6-hexahydroazepino[4,5-b]indol-10-yl)-2-hydroxypropanamide or (S)—N—((S)-7,8-dichloro-1,5,5-trimethyl-2-oxo-1,2,3,4,5,6-hexahydroazepino[4,5-b]indol-10-yl)-2-hydroxypropanamide] | 1.18 | 0.0456
COCCOc1cc(Cl)c(Cl)c2[nH]c3c(c12)[C@H](C)C(=O)NCC3(C)C (single isomer, unassigned) [Example 184, (S)-7,8-Dichloro-10-(2-methoxyethoxy)-1,5,5-trimethyl-3,4,5,6-tetrahydroazepino[4,5-b]indol-2(1H)-one or (R)-7,8-dichloro-10-(2-methoxyethoxy)-1,5,5-trimethyl-3,4,5,6-tetrahydroazepino[4,5-b]indol-2(1H)-one] | 1.37 | 0.0174
COCCOc1cc(Cl)c(Cl)c2[nH]c3c(c12)[C@H](C)C(=O)NCC3(C)C (single isomer, unassigned) [Example 185, (S)-7,8-Dichloro-10-(2-methoxyethoxy)-1,5,5-trimethyl-3,4,5,6-tetrahydroazepino[4,5-b]indol-2(1H)-one or (R)-7,8-Dichloro-10-(2-methoxyethoxy)-1,5,5-trimethyl-3,4,5,6-tetrahydroazepino[4,5-b]indol-2(1H)-one] | > 10 | 1.89
C[C@@H]1C(=O)NCCc2c1c1c(NC(=O)CO)cc(Cl)c(Cl)c1n2CC(F)(F)F (single isomer, unassigned) [Example 186, (S)—N-(7,8-Dichloro-1-methyl-2-oxo-6-(2,2,2-trifluoroethyl)-1,2,3,4,5,6-hexahydroazepino[4,5-b]indol-10-yl)-2-hydroxyacetamide or (R)—N-(7,8-Dichloro-1-methyl-2-oxo-6-(2,2,2-trifluoroethyl)-1,2,3,4,5,6-hexahydroazepino[4,5-b]indol-10-yl)-2-hydroxyacetamide] | 4.34 | 0.0489
C[C@@H]1C(=O)NCCc2c1c1c(NC(=O)CO)cc(Cl)c(Cl)c1n2CC(F)(F)F (single isomer, unassigned) [Example 187, (S)—N-(7,8-Dichloro-1-methyl-2-oxo-6-(2,2,2-trifluoroethyl)-1,2,3,4,5,6-hexahydroazepino[4,5-b]indol-10-yl)-2-hydroxyacetamide or (R)—N-(7,8-Dichloro-1-methyl-2-oxo-6-(2,2,2-trifluoroethyl)-1,2,3,4,5,6-hexahydroazepino[4,5-b]indol-10-yl)-2-hydroxyacetamide] | > 10 | > 39.8
CC1C(=O)NCCc2[nH]c3c(Cl)c(Cl)cc(NCc4cocn4)c3c21 (stereo in doubt) [Example 58, (S′)-7,8-Dichloro-1-methyl-10-((oxazol-4-ylmethyl)amino)-3,4,5,6-tetrahydroazepino[4,5-b]indol-2(1H)-one Or (R)-7,8-Dichloro-1-methyl-10-((oxazol-4-ylmethyl)amino)-3,4,5,6-tetrahydroazepino[4,5-b]indol-2(1H)-one] | 0.577 | 0.0165
CC1C(=O)NCCc2[nH]c3c(Cl)c(Cl)cc(NCc4cocn4)c3c21 (stereo in doubt) [Example 59, (S′)-7,8-Dichloro-1-methyl-10-((oxazol-4-ylmethyl)amino)-3,4,5,6-tetrahydroazepino[4,5-b]indol-2(1H)-one Or (R)-7,8-Dichloro-1-methyl-10-((oxazol-4-ylmethyl)amino)-3,4,5,6-tetrahydroazepino[4,5-b]indol-2(1H)-one] | > 10 | 2
CC1C(=O)NCCc2[nH]c3c(Cl)c(Cl)cc(NC4CCOC4)c3c21 (stereo in doubt) [Example 66, 7,8-Dichloro-1-methyl-10-(((R)-tetrahydrofuran-3-yl)amino)-3,4,5,6-tetrahydroazepino[4,5-b]indol-2(1H)-one] | 4.15 | 0.0375
Cn1ncc(-c2cc(Cl)c(F)c3[nH]c4c(c23)CC(=O)NCC4)n1 [Example 1, 8-Chloro-7-fluoro-10-(2-methyl-2H-1,2,3-triazol-4-yl)-3,4,5,6-tetrahydroazepino[4,5-b]indol-2(1H)-one] | 2.64 | 0.0334
Cn1ncc(-c2cc(Cl)c(Cl)c3[nH]c4c(c23)CC(=O)NCC4)n1 [Example 2, 7,8-Dichloro-10-(2-methyl-2H-1,2,3-triazol-4-yl)-3,4,5,6-tetrahydroazepino[4,5-b]indol-2(1H)-one] | 0.819 | 0.0205
CNC(=O)CC1CNC(=O)Cc2c1[nH]c1c(Cl)c(Cl)cc(-c3cnn(C)n3)c21 (stereo not drawn) [Example 6, 2-(7,8-Dichloro-10-(2-methyl-2H-1,2,3-triazol-4-yl)-2-oxo-1,2,3,4,5,6-hexahydroazepino[4,5-b]indol-5-yl)-N-methylacetamide] | > 10 | 0.0156
CN(C)C(=O)CC1CNC(=O)Cc2c1[nH]c1c(Cl)c(Cl)cc(-c3cnn(C)n3)c21 (stereo not drawn) [Example 7, 2-(7,8-Dichloro-10-(2-methyl-2H-1,2,3-triazol-4-yl)-2-oxo-1,2,3,4,5,6-hexahydroazepino[4,5-b]indol-5-yl)-N,N-dimethylacetamide] | 0.661 | 0.0281
CC1C(=O)NCCc2[nH]c3c(Cl)c(Cl)cc(-c4cnn(C)n4)c3c21 (stereo not drawn) [Example 9, 7,8-Dichloro-1-methyl-10-(2-methyl-2H-1,2,3-triazol-4-yl)-3,4,5,6-tetrahydroazepino[4,5-b]indol-2(1H)-one] | 2.16 | 0.087
COc1cc(Cl)c(Cl)c2[nH]c3c(c12)C(C)C(=O)NCC3 (stereo not drawn) [Example 10, 7,8-Dichloro-10-methoxy-1-methyl-3,4,5,6-tetrahydroazepino[4,5-b]indol-2(1H)-one] | 2.73 | 0.124
CCC1C(=O)NCCc2[nH]c3c(Cl)c(Cl)cc(NC(=O)CO)c3c21 (stereo not drawn) [Example 11, N-(7,8-Dichloro-1-ethyl-2-oxo-1,2,3,4,5,6-hexahydroazepino[4,5-b]indol-10-yl)-2-hydroxyacetamide] | 1.76 | 0.0454
CC1C(=O)NCCc2[nH]c3c(Cl)c(Cl)cc(OCCO)c3c21 (stereo not drawn) [Example 18, 7,8-Dichloro-10-(2-hydroxyethoxy)-1-methyl-3,4,5,6-tetrahydroazepino[4,5-b]indol-2(1H)-one] | 2.07 | 0.0709
O=C1Cc2c([nH]c3c(Cl)c(Cl)cc(-c4cn[nH]c4)c23)CCN1 [Example 19, 7,8-Dichloro-10-(1H-pyrazol-4-yl)-3,4,5,6-tetrahydroazepino[4,5-b]indol-2(1H)-one] | > 10 | 0.0936
NC(=O)COc1cc(Cl)c(Cl)c2[nH]c3c(c12)CC(=O)NCC3 [Example 20, 2-((7,8-Dichloro-2-oxo-1,2,3,4,5,6-hexahydroazepino[4,5-b]indol-10-yl)oxy)acetamide] | > 10 | 0.132
O=C1Cc2c([nH]c3c(Cl)c(Cl)cc(NCCCO)c23)CCN1 [Example 22, 7,8-Dichloro-10-((3-hydroxypropyl)amino)-3,4,5,6-tetrahydroazepino[4,5-b]indol-2(1H)-one] | 4.58 | 0.0459
O=C1Cc2c([nH]c3c(Cl)c(Cl)cc(OCCCO)c23)CCN1 [Example 23, 7,8-Dichloro-10-(3-hydroxypropoxy)-3,4,5,6-tetrahydroazepino[4,5-b]indol-2(1H)-one] | 7.79 | 0.118
O=C1Cc2c([nH]c3c(Cl)c(Cl)cc(NC(=O)CO)c23)CCN1 [Example 24, N-(7,8-Dichloro-2-oxo-1,2,3,4,5,6-hexahydroazepino[4,5-b]indol-10-yl)-2-hydroxyacetamide] | 6.91 | 0.0884
